Experimental data as given in patent US4791116A, “N,N-diethyl-N'-[(8α)-1-ethyl-6-methyl-ergolin-8-yl]-sulfamide useful as prolactin secretion inhibitor, anti-parkinson agents and anti-depressant agents” (priority 1983, dated 1988).
Read-outs that look alike come from different tables or passages of the source.

Key:
[1] = system: implantation; test: inhibition of implantation in female rats; format: in vivo; conditions: Rattus norvegicus, sc, read-out: ED50 Implantation
Source text: The effects are for an unexpectedly long period e.g. several hours.

[2] = system: central dopamine receptor; test: Ungerstedt test: turning in rats lesioned unilaterally with 6-hydroxy-dopamine (anti-parkinson); format: in vivo, rat
Description: In particular the compounds are useful as central dopamine receptor agents for the treatment of e.g. Morbus Parkinson as indicated in standard tests. For example in rates lesioned unilaterally in the nigro-neostratal dopamine pathway by the effect of a 6-hydroxy-dopamine injection in the substantia nigra the compounds at doses of between about 3 and about 30 mg/kg p.o., according to the method of U.Ungerstedt Acta.physiol.scand.Suppl.387, 69-93 (1971) and substantially the same as that described by J. M. Vigouret et al., Pharmacology 16 (Suppl.1) 156-193 (1978), induce turning in the direction of the non-denerved side over a long period of time, e.g. several hours.

[3] = tolerability in the beagle dog; format: in vivo; conditions: p.o.

In the case of `CC(C)C[C@H]1C(=O)N2CCC[C@H]2[C@]2(O)O[C@](NC(=O)[C@@H]3C=C4c5cccc6[nH]c(Br)c(c56)C[C@H]4N(C)C3)(C(C)C)C(=O)N12` [Bromocriptine, reference compound], the ED50 [1] is reported as 0.75 mg/kg and the “Ungerstedt test, No of rotations” value ([2]; at 0.1 mg/kg s.c.) is reported as 80.
For `CCN(CC)S(=O)(=O)N[C@H]1C[C@@H]2c3cccc4c3c(cn4CC)C[C@H]2N(C)C1` [Example 1, N,N-Diethyl-N'-[(8α)-1-ethyl-6-methyl-ergolin-8-yl]-sulfamide], the emetic effects [3] was “few emetic effects”, the ED50 ([1]; female rats, s.c.) was 0.23 mg/kg and the “Ungerstedt test, No of rotations” value ([2]; 3 mg/kg p.o., over 7 hours) was 774. The “anti-parkinson activity relative to prolactin secretion activity” value ([2]; comparison with prolactin secretion tests) was “particularly patent anti-parkinson activity relative to prolactin secretion activity”.
With `CCN(CC)S(=O)(=O)N[C@H]1C[C@@H]2c3cccc4c3c(cn4C(C)C)C[C@H]2N(C)C1` [Example 2, N,N-Diethyl-N'-[(8α)-1-isopropyl-6-methylergolin-8-yl]sulfamide] the ED50 ([1]; female rats, s.c.) was 0.08 mg/kg and the “Ungerstedt test, No of rotations” value ([2]; 3 mg/kg p.o., over 7 hours) was 1608.
